Measurements published in the supplement of paper PMC10307832.

Columns and labels:
Assay in all cases: relative viability (nuclei count vs DMSO), 5 days (fraction); higher = more cells survive
[1] = compound: O=C(c1cc(Cc2n[nH]c(=O)c3ccccc23)ccc1F)N1CCN(C(=O)C2CC2)CC1 [Olaparib] + Nc1nc2[nH]cc(CCc3ccc(C(=O)N[C@@H](CCC(=O)O)C(=O)O)cc3)c2c(=O)[nH]1 [Pemetrexed] (partner 0.2 µM)
Method in brief: (§1)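 A single step with final 0.05% Triton X-100, 1% formaldehyde and 1 ug/ml Hoechst fixed the cells and stained nuclei 5 days after treatment. Lung cancer cell lines in 1536-well plates had been treated by pin tool the day after seeding with one drug alone or a fixed anchor-drug dose plus five library-drug doses (not always all listed) in √10 steps, and nuclei were counted on 4× images. Relative viability is the ratio of nuclei in treated wells to nuclei in vehicle wells, taken as the median of duplicate plates.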

[2] = compound: C[C@@H](Oc1cc(-c2cnn(C3CCNCC3)c2)cnc1N)c1c(Cl)ccc(F)c1Cl [Crizotinib] + CC(=O)c1c(C)c2cnc(Nc3ccc(N4CCNCC4)cn3)nc2n(C2CCCC2)c1=O [Palbociclib] (partner 0.5 µM)
Method in brief: as §1

[3] = compound: C[C@@H](Oc1cc(-c2cnn(C3CCNCC3)c2)cnc1N)c1c(Cl)ccc(F)c1Cl [Crizotinib] + Nc1nc2[nH]cc(CCc3ccc(C(=O)N[C@@H](CCC(=O)O)C(=O)O)cc3)c2c(=O)[nH]1 [Pemetrexed] (partner 0.2 µM)
Method in brief: as §1

[4] = compound: CC(C)C[C@H](NC(=O)[C@H](CCc1ccccc1)NC(=O)CN1CCOCC1)C(=O)N[C@@H](Cc1ccccc1)C(=O)N[C@@H](CC(C)C)C(=O)[C@@]1(C)CO1 [Carfilzomib] + Cc1nc(NC(=O)N2CCC[C@H]2C(N)=O)sc1-c1ccnc(C(C)(C)C(F)(F)F)c1 [Alpelisib] (partner 2 µM)
Method in brief: as §1

Cell Line	relative viability ([1]; first compound 0.08 µM)	relative viability ([1]; first compound 0.253 µM)	relative viability ([1]; first compound 2.53 µM)	relative viability ([1]; first compound 8 µM)	relative viability ([2]; first compound 0.01 µM)	relative viability ([2]; first compound 0.03162 µM)	relative viability ([2]; first compound 0.1 µM)	relative viability ([2]; first compound 0.3162 µM)	relative viability ([2]; first compound 1 µM)	relative viability ([3]; first compound 0.01 µM)	relative viability ([3]; first compound 0.03162 µM)	relative viability ([3]; first compound 0.1 µM)	relative viability ([3]; first compound 0.3162 µM)	relative viability ([3]; first compound 1 µM)	relative viability ([4]; first compound 0.001 µM)	relative viability ([4]; first compound 0.003162 µM)	relative viability ([4]; first compound 0.01 µM)	relative viability ([4]; first compound 0.03162 µM)	relative viability ([4]; first compound 0.1 µM)
201T	0.309	0.346	0.298	0.323	0.336	0.375	0.329	0.384	0.344	0.296	0.279	0.32	0.324	0.331	0.986	1.05	0.983	1.07	0.893
A549	–	–	–	–	–	–	–	–	–	–	–	–	–	–	0.652	0.754	0.755	0.0509	0.04
A-427	0.922	0.947	0.87	0.73	0.486	0.53	0.496	–	0.558	0.967	0.954	0.957	–	–	1.07	1.07	1.06	0.699	0.1
ABC-1	–	–	–	–	0.811	0.838	0.517	–	0.711	–	–	–	–	–	1.16	1.09	0.636	0.246	0.267
BEN	0.725	0.672	0.828	0.895	0.528	0.504	0.464	0.47	0.489	0.726	0.741	0.739	0.596	0.702	1.04	1.22	1.12	0.83	0.499
CAL-12T	1.48	1.04	1.16	0.963	0.369	0.577	0.341	0.295	0.369	1.09	1.09	1.06	1.19	1.02	–	1.38	1.3	0.619	0.105
COR-L23	0.221	0.195	0.177	0.21	0.289	0.269	0.298	0.256	0.328	0.19	0.189	0.201	0.207	0.199	0.735	0.879	0.709	0.0481	0.052
COR-L 105	1.31	1	0.838	0.914	0.4	0.427	0.397	0.388	0.409	1.04	1.16	1	1.24	1.07	1.04	1.16	0.85	0.566	0.246
Calu-6	–	–	–	–	–	–	–	–	–	–	–	–	–	–	0.93	1.02	0.838	0.174	0.102
